System: normal human lung fibroblasts
Assay: Ribosomal profiling: translational efficiency in TGFβ-treated fibroblasts
Format: cell-based
Details: TGFβ-treated fibroblasts
Protocol: Ribosomal profiling allows for measurement of changes in transcription and translation on a genome-wide basis accompanying TGFβ-dependent transformation of fibroblasts to myofibroblasts. Ribosomal profiles of the TGFβ-treated fibroblasts from Example 1 (about 6×10^6 cells/10 cm plate) were prepared and analyzed for changes in translational efficiencies with respect to potential disease-associated cellular changes accompanying this TGFβ-induced transformation.
Briefly, cells were washed with cold PBS supplemented with cycloheximide and lysed with 1× mammalian cell lysis buffer for 10 minutes on ice. Lysates were clarified by centrifugation for 10 minutes at 14,000 rpm and supernatants were collected. Cell lysates were processed to generate ribosomal protected fragments and total mRNA according to the instructions included with the ARTseq Ribosome Profiling Kit (Illumina, San Diego, Calif.). Sequencing of total RNA (RNA) and of ribosome-protected fragments of RNA (RPF) was carried out using RNA-Seq methodology according to the manufacturer's instructions (Illumina). To analyze the ribosomal profiles, RNA-Seq reads were processed with tools from the FASTX-Toolkit (fastq_quality_trimmer, fastx_clipper and fastx_trimmer). Unprocessed and processed reads were evaluated for a variety of quality measures using FastQC, and processed reads were mapped to the human genome using TopHat (see, e.g., Trapnell et al., Bioinformatics 25:1105, 2009). Gene-by-gene assessment of the number of fragments strictly and uniquely mapping to the coding region of each gene was conducted using HTSeq-count, a component of the HTSeq package. […] Genes with low counts in either RPF or RNA were excluded from differential analyses. Pathway and network analyses of differential data were conducted using Ingenuity Pathway Analysis (IPA).

Cc1cc(C2CCCCC2)n(O)c(=O)c1.NCCO [CPX, ciclopirox oloamine]
− (− = <0.9): renormalizing the translational profile of DNASE1L1 (ENSG00000013563) | renormalizing the translational profile of KITLG (ENSG00000049130) | renormalizing the translational profile of ADAMTS6 (ENSG00000049192) | renormalizing the translational profile of LETMD1 (ENSG00000050426) | renormalizing the translational profile of PLEKHA5 (ENSG00000052126) | renormalizing the translational profile of EIF4B (ENSG00000063046) | renormalizing the translational profile of RPL18 (ENSG00000063177) | renormalizing the translational profile of HIPK2 (ENSG00000064393) | renormalizing the translational profile of ASPM (ENSG00000066279) | renormalizing the translational profile of RASSF1 (ENSG00000068028) | renormalizing the translational profile of PABPC1 (ENSG00000070756) | renormalizing the translational profile of RPL31 (ENSG00000071082) | renormalizing the translational profile of PLD1 (ENSG00000075651) | renormalizing the translational profile of EDN1 (ENSG00000078401) | renormalizing the translational profile of AURKA (ENSG00000087586) | renormalizing the translational profile of EPB41L1 (ENSG00000088367) | renormalizing the translational profile of RPL6 (ENSG00000089009) | renormalizing the translational profile of KDM2B (ENSG00000089094) | renormalizing the translational profile of RPLP0 (ENSG00000089157) | renormalizing the translational profile of IGBP1 (ENSG00000089289) | renormalizing the translational profile of IRAK3 (ENSG00000090376) | renormalizing the translational profile of PABPC4 (ENSG00000090621) | renormalizing the translational profile of FMO2 (ENSG00000094963) | renormalizing the translational profile of ACOT7 (ENSG00000097021) | renormalizing the translational profile of ATP5D (ENSG00000099624) | renormalizing the translational profile of LGALS1 (ENSG00000100097) | renormalizing the translational profile of EIF3L (ENSG00000100129) | renormalizing the translational profile of RPL3 (ENSG00000100316) | renormalizing the translational profile of CEP192 (ENSG00000101639) | renormalizing the translational profile of AMMECR1 (ENSG00000101935) | renormalizing the translational profile of PLP2 (ENSG00000102007) | renormalizing the translational profile of EIF3E (ENSG00000104408) | renormalizing the translational profile of EEF1D (ENSG00000104529) | renormalizing the translational profile of C19orf53 (ENSG00000104979) | renormalizing the translational profile of RAB3D (ENSG00000105514) | renormalizing the translational profile of RPL18A (ENSG00000105640) | renormalizing the translational profile of COMP (ENSG00000105664) | renormalizing the translational profile of GLCCI1 (ENSG00000106415) | renormalizing the translational profile of CORO2A (ENSG00000106789) | renormalizing the translational profile of RPL28 (ENSG00000108107) | renormalizing the translational profile of RPL19 (ENSG00000108298) | renormalizing the translational profile of RASD1 (ENSG00000108551) | renormalizing the translational profile of NAT9 (ENSG00000109065) | renormalizing the translational profile of RPL34 (ENSG00000109475) | renormalizing the translational profile of CRYAB (ENSG00000109846) | renormalizing the translational profile of GAPDH (ENSG00000111640) | renormalizing the translational profile of C12orf57 (ENSG00000111678) | renormalizing the translational profile of HBEGF (ENSG00000113070) | renormalizing the translational profile of RPL24 (ENSG00000114391) | renormalizing the translational profile of EEF1B2 (ENSG00000114942) | renormalizing the translational profile of IFIH1 (ENSG00000115267) | renormalizing the translational profile of DPH5 (ENSG00000117543) | renormalizing the translational profile of PPL (ENSG00000118898) | renormalizing the translational profile of LIAS (ENSG00000121897) | renormalizing the translational profile of GPSM2 (ENSG00000121957) | renormalizing the translational profile of RPL21 (ENSG00000122026) | renormalizing the translational profile of RPL5 (ENSG00000122406) | renormalizing the translational profile of INHBA (ENSG00000122641) | renormalizing the translational profile of CIT (ENSG00000122966) | renormalizing the translational profile of RPL23 (ENSG00000125691)
++ (++ = 1.5 to 2.0): renormalizing the translational profile of P2RX7 (ENSG00000089041)
+ (+ = 0.9 to 1.5): renormalizing the translational profile of GLTSCR2 (ENSG00000105373) | renormalizing the translational profile of GDF10 (ENSG00000107623) | renormalizing the translational profile of PLEKHG1 (ENSG00000120278) | renormalizing the translational profile of LAMP5 (ENSG00000125869)
